Laboratory results from US11584714B2 (priority 2018, dated 2023).
Counter-ions that a name gives are not always drawn. Like-named read-outs stand apart in the source and are kept apart here.

Key:
Format in all cases: biochemical
human α-thrombin = human α-thrombin (Homo sapiens (Human), UniProt P00734); experiment: Enzymatic assay for thrombin (Boc-VPR-AMC substrate)
mMASP-2 = mMASP-2 (Mus musculus (Mouse), UniProt Q91WP0); experiment: Enzymatic inhibition of mMASP-2
MASP-2 (CCP1-CCP2-SP) = MASP-2 (CCP1-CCP2-SP) (Homo sapiens (Human), UniProt O00187); experiment: biochemical
[1] = selectivity for MASP-2 inhibition versus thrombin

Chain of MASP-2 (CCP1-CCP2-SP) (O00187 445-686): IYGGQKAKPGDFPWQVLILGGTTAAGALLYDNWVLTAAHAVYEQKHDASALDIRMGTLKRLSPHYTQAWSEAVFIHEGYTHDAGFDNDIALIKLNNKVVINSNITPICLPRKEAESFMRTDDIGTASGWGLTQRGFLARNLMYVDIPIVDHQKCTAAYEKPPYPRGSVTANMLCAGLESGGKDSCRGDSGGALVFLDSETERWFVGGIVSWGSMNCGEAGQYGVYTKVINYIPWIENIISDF
Chain of mMASP-2 (Q91WP0 20-685): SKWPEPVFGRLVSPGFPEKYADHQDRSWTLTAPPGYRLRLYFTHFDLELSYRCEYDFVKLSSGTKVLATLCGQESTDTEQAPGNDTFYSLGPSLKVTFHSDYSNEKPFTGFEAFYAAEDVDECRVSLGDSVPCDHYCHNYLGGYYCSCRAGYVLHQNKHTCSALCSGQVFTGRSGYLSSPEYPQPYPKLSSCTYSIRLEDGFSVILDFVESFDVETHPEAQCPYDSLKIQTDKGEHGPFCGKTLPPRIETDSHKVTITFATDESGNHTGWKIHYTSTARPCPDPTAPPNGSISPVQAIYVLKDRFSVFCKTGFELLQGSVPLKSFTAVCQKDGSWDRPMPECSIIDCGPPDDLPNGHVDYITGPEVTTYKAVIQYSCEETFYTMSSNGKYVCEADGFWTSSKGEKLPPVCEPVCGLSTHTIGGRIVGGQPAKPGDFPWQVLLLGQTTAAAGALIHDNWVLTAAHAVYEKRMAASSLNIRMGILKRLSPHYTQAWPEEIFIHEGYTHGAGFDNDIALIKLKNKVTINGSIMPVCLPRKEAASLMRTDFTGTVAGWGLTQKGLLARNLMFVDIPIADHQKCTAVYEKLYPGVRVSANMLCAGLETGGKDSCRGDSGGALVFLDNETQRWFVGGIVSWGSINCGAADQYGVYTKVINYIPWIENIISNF

SMILES: CCN1CC[C@H](c2ccccc2)C[C@@H]1C(=O)N[C@@H](C)C(=O)NCc1ccc(N)nc1C [compound 1496, (2R,4S)—N—((S)-1-(((6-Amino-2-methylpyridin-3-yl)methyl)amino)-1-oxopropan-2-yl)-1-ethyl-4-phenylpiperidine-2-carboxamide]
- Ki (human α-thrombin; read-out: Thrombin Ki): > 25 µM
- Ki (mMASP-2; read-out: mMASP-2 Ki): 500 to 2500 nM
- Ki (MASP-2 (CCP1-CCP2-SP); read-out: MASP-2 Ki): < 500 nM

SMILES: CCCOC(=O)NC(=N)c1ccc(CNC(=O)[C@H](C)NC(=O)[C@H]2C[C@H](c3ccccc3)CN2)cc1 [compound 1263, Propyl (imino(4-(((S)-2-((2R,4R)-4-phenylpyrrolidine-2-carboxamido)propanamido)methyl)phenyl)methyl)carbamate]
- Ki (human α-thrombin; read-out: Thrombin Ki): > 25 µM
- Ki (mMASP-2): 2500 to 10000 nM
- Ki (MASP-2 (CCP1-CCP2-SP)): 2500 to 10000 nM

SMILES: Cc1nc(N)ccc1CNC(=O)[C@H](C)NC(=O)[C@H]1C[C@@H](Oc2ccccc2)CN1 [compound 1310, (2R,4R)—N—((S)-1-(((6-Amino-2-methylpyridin-3-yl)methyl)amino)-1-oxopropan-2-yl)-4-phenoxypyrrolidine-2-carboxamide Dihydrochloride]
- Ki (human α-thrombin; read-out: Thrombin Ki): > 25 µM
- Ki (mMASP-2; read-out: mMASP-2 Ki): > 25000 nM
- Ki (MASP-2 (CCP1-CCP2-SP)): 500 to 2500 nM
- MASP-2 vs. thrombin selectivity (MASP-2 (CCP1-CCP2-SP); [1]): *** (≥25 to <100-fold)

SMILES: C[C@H](NC(=O)[C@H]1C[C@@H](c2cccc(C(F)(F)F)c2)CN1)C(=O)NCc1ccc(C(=N)N)cc1 [compound 1276, (2R,4S)—N—((S)-1-((4-Carbamimidoylbenzyl)amino)-1-oxopropan-2-yl)-4-(3-(trifluoromethyl)phenyl)pyrrolidine-2-carboxamide]
- Ki (human α-thrombin; Thrombin Ki (μM)): 0.5 to 2.5 µM
- Ki (mMASP-2; read-out: mMASP-2 Ki): < 500 nM
- Ki (MASP-2 (CCP1-CCP2-SP); read-out: MASP-2 Ki): < 500 nM
- MASP-2 vs. thrombin selectivity (MASP-2 (CCP1-CCP2-SP); [1]): *** (≥25 to <100-fold)

SMILES: C[C@H](NC(=O)[C@H]1C[C@H](c2ccccc2)CN1)C(=O)NCc1ccc(C(N)=O)nc1 [compound 1273, 5-(((S)-2-((2R,4R)-4-Phenylpyrrolidine-2-carboxamido)propanamido)methyl)picolinamide]
- Ki (human α-thrombin; read-out: Thrombin Ki): > 25 µM
- Ki (mMASP-2; read-out: mMASP-2 Ki): 10000 to 25000 nM
- Ki (MASP-2 (CCP1-CCP2-SP)): 10000 to 25000 nM

SMILES: Cc1nc(N)ccc1CNC(=O)[C@H](C)NC(=O)[C@H]1C[C@H](Cc2cc(C(F)(F)F)cc(C(F)(F)F)c2)CN1 [compound 1424, (2R,4S)—N—((S)-1-(((6-Amino-2-methylpyridin-3-yl)methyl)amino)-1-oxopropan-2-yl)-4-(3,5-bis(trifluoromethyl)benzyl)pyrrolidine-2-carboxamide Di-trifluoroacetate salt]
- Ki (human α-thrombin; read-out: Thrombin Ki): < 0.5 µM
- Ki (mMASP-2; read-out: mMASP-2 Ki): 500 to 2500 nM
- Ki (MASP-2 (CCP1-CCP2-SP)): 500 to 2500 nM

SMILES: C[C@H](NC(=O)[C@@H](CCc1ccccc1)NCc1ccc(N2CCN(S(C)(=O)=O)CC2)cc1)C(=O)NCc1ccc(C(=N)N)cc1 [compound 1250, (R)—N—((S)-1-((4-Carbamimidoylbenzyl)amino)-1-oxopropan-2-yl)-2-((4-(4-(methylsulfonyl)piperazin-1-yl)benzyl)amino)-4-phenylbutanamide]
- Ki (human α-thrombin; read-out: Thrombin Ki): < 0.5 µM
- Ki (mMASP-2; read-out: mMASP-2 Ki): < 500 nM
- Ki (MASP-2 (CCP1-CCP2-SP); read-out: MASP-2 Ki): < 500 nM
- MASP-2 vs. thrombin selectivity (MASP-2 (CCP1-CCP2-SP); [1]): * (≥1.0 to <5.0-fold)

SMILES: Cc1nc(N)ccc1CNC(=O)[C@H](C)NC(=O)[C@H]1C[C@@H](c2ccccc2)CCN1CCC(=O)O [compound 1411, 3-((2R,4S)-2-(((S)-1-(((6-Amino-2-methylpyridin-3-yl)methyl)amino)-1-oxopropan-2-yl)carbamoyl)-4-phenylpiperidin-1-yl)propanoic acid Trifluoroacetate salt]
- Ki (human α-thrombin; read-out: Thrombin Ki): > 25 µM
- Ki (mMASP-2; read-out: mMASP-2 Ki): < 500 nM
- Ki (MASP-2 (CCP1-CCP2-SP); read-out: MASP-2 Ki): < 500 nM

SMILES: Cc1cccc([C@H]2CN[C@@H](C(=O)N[C@@H](C)C(=O)NCc3ccc(N)nc3C)C2)c1 [compound 1257, (2R,4S)—N—((S)-1-(((6-Amino-2-methylpyridin-3-yl)methyl)amino)-1-oxopropan-2-yl)-4-(m-tolyl)pyrrolidine-2-carboxamide]
- Ki (human α-thrombin; read-out: Thrombin Ki): > 25 µM
- Ki (mMASP-2; read-out: mMASP-2 Ki): 10000 to 25000 nM
- Ki (MASP-2 (CCP1-CCP2-SP); read-out: MASP-2 Ki): < 500 nM
- MASP-2 vs. thrombin selectivity (MASP-2 (CCP1-CCP2-SP); [1]): *** (≥25 to <100-fold)

SMILES: Cc1cccc(CC[C@@H](N)C(=O)N[C@@H](C)C(=O)NCc2ccc(C(=N)N)cc2)c1C [compound 1072]
- Ki (human α-thrombin; read-out: Thrombin Ki): < 0.5 µM
- Ki (mMASP-2; read-out: mMASP-2 Ki): < 500 nM
- MASP-2 vs. thrombin selectivity (MASP-2 (CCP1-CCP2-SP); MASP-2 inhibition versus thrombin): ** (5.0 to 25-fold)
- Ki (MASP-2 (CCP1-CCP2-SP); read-out: MASP-2 Ki): < 500 nM
